Source: patent publication US5916906A, “Compositions comprising nicotinylalanine and an inhibitor of glycine conjugation or vitamin B6” (priority 1997, dated 1999)
Several values for one entry are separate records, joined by “and”; a condition that tells them apart may be missing. Equal entries are not always repeated.

Legend:
Format in all cases: in vivo, C57BL/6 mice
[1] = Hematocrit of LP-BM5 infected mice (hematopoietic toxicity); details: mouse, in vivo
Procedure: Disease progression was monitored by measuring serum IgM levels by ELISA on all animals at monthly intervals during the course of disease. Three mice per group were randomly selected and sacrificed at monthly intervals (end of month one through four) of the study. Disease scores for each animal were recorded weekly based upon palpation of lymph nodes and spleen. Complete gross necropsies were performed on these euthanized animals and the ratio of recorded spleen to body weights was an additional indicator of diseases progression. […] Infection was quantified by ecotropic virus XC plaque assays of spleens removed from the interim sacrificed animals. The study was to be terminated when mice were either dead or disease scores were +4 in more than 50% of the vehicle-treated MAIDS controls (Group 1), which occurred at 19 weeks post-inoculation of the virus pool. However, as the remaining mice in Group 1 were slow to progress towards more severe disease (FIG. 5) or death (FIG. 6), the study was extended until a termination date of 28 weeks post-inoculation.
Mice were maintained through the fifth month post virus inoculation until

LP-BM5 MuLV Retrovirus [2] = assay: MAIDS model: disease stage score, attainment of disease score 4 (Kaplan-Meier) and survival up to 28 weeks
Source text: Each value represents the mean and one standard standard deviation for groups of surviving mice (at least 4 mice per group) at termination of the study, following 28 weeks post-inoculation by LP-BM5 virus.
(§1) Each group consisted of 8 mice, except for the virus-negative control group which consisted of 6 mice.
as §1
(§2) This study was designed to determine whether nicotinylalanine (NAL) alone or in combination with acetylsalicylic acid (ASA) will prevent or alter the course of murine retroviral-induced immunodeficiency disease, MAIDS, in C57BL/6 female mice. The LP-BM5 MuLV virus used for these studies was prepared from chronically infected SC-1 cells (ATCC Cat. No. CRL-1404), as described by Yetter R. A. et al., J. Exp. Med., 168, 623-635, 1988. […] The MAIDS model is well characterized and reproducible in the laboratory, as described by Mosier D. E. et al., J. Exp. Med. 161, 766-784, 1985.
(§3) Measures of disease progression followed the methods developed by Eiseman et al., 1991 (Ibid). Disease scores 0 through +4 are based upon body weight gain and palpable alterations in the size of lymph nodes and spleen. Severity of disease is scored as follows: 0.5, increased body weight and variably detected increase in size of any one lymph node or spleen; +1, clearly detectable increase in the size of a lymph node and spleen; +2, readily detectable (greater than 0.3 cm in diameter) increased size in more than one lymph node and, in particular, enlargement of subcervical, brachial or axillary nodes; +3, increased size of all palpable nodes and palpable splenomegaly (≥0.3 grams); +4, advanced disease with extensive splenomegaly (>1.0 grams) and lymphadenopathy.
(§4) Specific pathogen free, female C57BL/6 mice (5 weeks of age) were purchased from Charles River Breeding Laboratories. All mice were allowed one week to acclimate to housing facilities prior to randomization for study. Animals were marked for identification and placed in microisolator cages with identifying cards (5 mice/cage), where autoclaved food and water were provided ad libitum.
(§5) NAL and ASA were formulated under sterile conditions according to preformulation methods outlined in Remington's Pharmaceutical Sciences Handbook, 18th Edition, 1990, ibid). NAL and ASA were dissolved in sterile phosphate-buffered normal saline solution (i.e., vehicle; Biofluids Inc., Lot 413054), adjusted to between pH 7.2 to 7.4 with […], sterilized by filtration through 0.2 μm bottle-type filters, and dispersed into sterile glass vials, sealed and capped (Wheaton Inc.).
(§6) Except for Group 6 (which began treatment 2 weeks after virus inoculation),test drug injections began 1 day after virus infection and continued every day except weekends (i.e., 5 times per week).

LP-BM5 MuLV Retrovirus [3] = assay: MAIDS model, interim sacrifices: body weight, disease score, spleen weight; details: for Body Wt. / Spleen Wt.: individual mouse; for Disease Score: scores 0 through +4, individual mouse
Procedure: as §2, §3, §4, §5, §6
Disease progression was monitored by measuring serum IgM levels by ELISA on all animals at monthly intervals during the course of disease. Three mice per group were randomly selected and sacrificed at monthly intervals (end of month one through four) of the study. Disease scores for each animal were recorded weekly based upon palpation of lymph nodes and spleen. Complete gross necropsies were performed on these euthanized animals and the ratio of recorded spleen to body weights was an additional indicator of diseases progression. […] Infection was quantified by ecotropic virus XC plaque assays of spleens removed from the interim sacrificed animals.

[4] = Plasma nicotinamide levels in LP-BM5 infected mice (HPLC); details: NAL 400 mg/kg; for Mean Plasma Nicotinamide Level: virus-positive, mean ± SD
Procedure: Mice were sacrificed on Tuesdays at monthly intervals after
inoculation, approximately 24 hours after their last treatment.
At time of sacrifice, blood was collected by cardiac puncture and stored
Results are expressed as mean concentrations ± standard deviation in

[5] = NAL 400 mg/kg delayed by two weeks, FIG. 5
[6] = 1 month postinoculation, NAL 200 mg/kg i.p. (no ASA)
[7] = 1 month postinoculation, NAL 400 mg/kg i.p., delayed Rx 2 weeks
[8] = 1 month postinoculation, treatment from day 1: NAL 400 mg/kg i.p., ASA 20 mg/kg i.p., AZT 1 mg/ml in drink water
[9] = 2 months postinoculation, NAL 200 mg/kg i.p. (no ASA)
[10] = 2 months postinoculation, NAL 400 mg/kg i.p., delayed Rx 2 weeks
[11] = 2 months postinoculation, treatment from day 1: NAL 400 mg/kg i.p., ASA 20 mg/kg i.p., AZT 1 mg/ml in drink water
[12] = 3 months postinoculation, NAL 400 mg/kg i.p., delayed Rx 2 weeks
[13] = 3 months postinoculation, treatment from day 1: NAL 400 mg/kg i.p., ASA 20 mg/kg i.p., AZT 1 mg/ml in drink water
[14] = 4 months postinoculation, NAL 400 mg/kg i.p., delayed Rx 2 weeks
[15] = 4 months postinoculation, treatment from day 1: NAL 400 mg/kg i.p., ASA 20 mg/kg i.p., AZT 1 mg/ml in drink water

With NC(CC(=O)c1cccnc1)C(=O)O (racemic) [NAL, γ-(3-pyridyl)-γ-oxo-α-aminobutyrate] as the compound, how does the “Effect on decreased hematocrit (in words)” value [1] read?
The value was “protective effect”.

And the “Survival vs LP-BM5 virus-positive control (log-rank p)” value (LP-BM5 MuLV Retrovirus [2]; NAL 400 mg/kg after two week delay, FIG. 6)?
The value was 0.2492.

What about the “Retardation of disease progression (score +4), Log-Rank p” value (LP-BM5 MuLV Retrovirus [2]; [5]) of the same compound?
Its value is 0.0469.

And the “Retardation of disease progression (score +4), Wilcoxon p” value (LP-BM5 MuLV Retrovirus [2]; [5])?
The value was 0.0258.

What about the “Survival vs vehicle-injected control (Wilcoxon p)” value (LP-BM5 MuLV Retrovirus [2]; NAL 400 mg/kg delayed by two weeks, FIG. 6) of the same compound?
The value was 0.1756.

And the “Survival vs LP-BM5 virus-positive control (log-rank p)” value (LP-BM5 MuLV Retrovirus [2]; treatment from day 1, FIG. 6)?
The value was 0.9621.

What about the “Body Wt.” value (LP-BM5 MuLV Retrovirus [3]; [6]) of the same compound?
The value was 21.9 Grams and 21.8 Grams and 23.4 Grams.

And the “Spleen Wt.” value (LP-BM5 MuLV Retrovirus [3]; [6])?
The value was 0.080 Grams and 0.257 Grams and 0.123 Grams.

And the “Body Wt.” value (LP-BM5 MuLV Retrovirus [3]; [7])?
Its value is 20.4 Grams and 20.5 Grams and 22.3 Grams.

What about the “Spleen Wt.” value (LP-BM5 MuLV Retrovirus [3]; [7]) of the same compound?
The value was 0.103 Grams and 0.151 Grams and 0.136 Grams.

And the “Body Wt.” value (LP-BM5 MuLV Retrovirus [3]; [8])?
The value was 21.3 Grams and 20.4 Grams and 19.6 Grams.

What about the “Spleen Wt.” value (LP-BM5 MuLV Retrovirus [3]; [8]) of the same compound?
Its value is 0.186 Grams and 0.309 Grams and 0.159 Grams.

What about the “Disease Score” value (LP-BM5 MuLV Retrovirus [3]; [6]) of the same compound?
Its value is 0 and 1 and 0.5.

What about the “Disease Score” value (LP-BM5 MuLV Retrovirus [3]; [7]) of the same compound?
The value was 0 and 0.5.

What about the “Disease Score” value (LP-BM5 MuLV Retrovirus [3]; [8]) of the same compound?
Its value is 1.

What about the “Body Wt.” value (LP-BM5 MuLV Retrovirus [3]; [9]) of the same compound?
Its value is 22.5 Grams and 23.8 Grams and 22.2 Grams.

What about the “Spleen Wt.” value (LP-BM5 MuLV Retrovirus [3]; [9]) of the same compound?
The value was 0.229 Grams and 0.098 Grams and 0.302 Grams.

And the “Body Wt.” value (LP-BM5 MuLV Retrovirus [3]; [10])?
The value was 21.2 Grams and 20.0 Grams and 26.6 Grams.

And the “Spleen Wt.” value (LP-BM5 MuLV Retrovirus [3]; [10])?
Its value is 0.168 Grams and 0.086 Grams and 0.320 Grams.

And the “Body Wt.” value (LP-BM5 MuLV Retrovirus [3]; [11])?
The value was 21.6 Grams and 24.0 Grams.

What about the “Spleen Wt.” value (LP-BM5 MuLV Retrovirus [3]; [11]) of the same compound?
The value was 0.289 Grams and 0.216 Grams and 0.125 Grams.

And the “Disease Score” value (LP-BM5 MuLV Retrovirus [3]; [9])?
The value was 1 and 0.5 and 2.

What about the “Disease Score” value (LP-BM5 MuLV Retrovirus [3]; [10]) of the same compound?
Its value is 1 and 0 and 2.

What about the “Disease Score” value (LP-BM5 MuLV Retrovirus [3]; [11]) of the same compound?
The value was 1 and 2.

And the “Body Wt.” value (LP-BM5 MuLV Retrovirus [3]; [12])?
The value was 23.8 Grams and 25.3 Grams and 26.3 Grams.

What about the “Spleen Wt.” value (LP-BM5 MuLV Retrovirus [3]; [12]) of the same compound?
Its value is 0.090 Grams and 0.112 Grams and 0.175 Grams.

And the “Body Wt.” value (LP-BM5 MuLV Retrovirus [3]; [13])?
Its value is 23.6 Grams and 22.3 Grams and 24.6 Grams.

And the “Spleen Wt.” value (LP-BM5 MuLV Retrovirus [3]; [13])?
Its value is 0.112 Grams and 0.341 Grams and 0.086 Grams.

And the “Disease Score” value (LP-BM5 MuLV Retrovirus [3]; [12])?
Its value is 0 and 0.5 and 1.

What about the “Disease Score” value (LP-BM5 MuLV Retrovirus [3]; [13]) of the same compound?
Its value is 0.5 and 2.

What about the “Body Wt.” value (LP-BM5 MuLV Retrovirus [3]; [14]) of the same compound?
Its value is 26.8 Grams and 27.5 Grams and 24.5 Grams.

And the “Spleen Wt.” value (LP-BM5 MuLV Retrovirus [3]; [14])?
The value was 0.399 Grams and 0.157 Grams and 0.083 Grams.

What about the “Body Wt.” value (LP-BM5 MuLV Retrovirus [3]; [15]) of the same compound?
The value was 27.6 Grams and 28.0 Grams and 25.5 Grams.

What about the “Spleen Wt.” value (LP-BM5 MuLV Retrovirus [3]; [15]) of the same compound?
The value was 0.119 Grams and 1.030 Grams and 0.240 Grams.

What about the “Disease Score” value (LP-BM5 MuLV Retrovirus [3]; [14]) of the same compound?
Its value is 3 and 1 and 0.5.

What about the “Disease Score” value (LP-BM5 MuLV Retrovirus [3]; [15]) of the same compound?
The value was 0.5 and 4 and 2.

And the “Ratio of plasma nicotinamide mean to placebo (PBS Control, Group 1)” value (“Ratio of plasma nicotinamide mean” below) ([4]; Month 1, ASA 20 mg/kg, AZT as in Table 4)?
Its value is 1.06.

And the “Ratio of plasma nicotinamide mean” value ([4]; Month 1, delayed 2 weeks)?
The value was 1.16.

And the “Mean Plasma Nicotinamide Level” value ([4]; Month 1, ~24 h after last treatment, ASA 20 mg/kg, AZT printed 1 mg/kg)?
Its value is 3.4 ± 0.9 nmol/mL.

What about the “Mean Plasma Nicotinamide Level” value ([4]; Month 1, delayed Rx 2 weeks) of the same compound?
Its value is 3.7 ± 1.1 nmol/mL.

And the “Ratio of plasma nicotinamide mean” value ([4]; Month 2, ASA 20 mg/kg, AZT as in Table 4)?
The value was 1.13.

And the “Ratio of plasma nicotinamide mean” value ([4]; Month 2, delayed 2 weeks)?
The value was 1.49.

What about the “Mean Plasma Nicotinamide Level” value ([4]; Month 2, ~24 h after last treatment, ASA 20 mg/kg, AZT printed 1 mg/kg) of the same compound?
The value was 4.4 ± 0.5 nmol/mL.

And the “Mean Plasma Nicotinamide Level” value ([4]; Month 2, delayed Rx 2 weeks)?
Its value is 5.8 ± 0.5 nmol/mL.

And the “Ratio of plasma nicotinamide mean” value ([4]; Month 3, ASA 20 mg/kg, AZT as in Table 4)?
The value was 1.35.

And the “Ratio of plasma nicotinamide mean” value ([4]; Month 3, delayed 2 weeks)?
Its value is 1.65.

And the “Mean Plasma Nicotinamide Level” value ([4]; Month 3, ~24 h after last treatment, ASA 20 mg/kg, AZT printed 1 mg/kg)?
Its value is 3.1 ± 0.4 nmol/mL.

What about the “Mean Plasma Nicotinamide Level” value ([4]; Month 3, delayed Rx 2 weeks) of the same compound?
Its value is 3.8 ± 0.1 nmol/mL.

What about the “Ratio of plasma nicotinamide mean” value ([4]; Month 4, ASA 20 mg/kg, AZT as in Table 4) of the same compound?
Its value is 1.88.

And the “Ratio of plasma nicotinamide mean” value ([4]; Month 4, delayed 2 weeks)?
The value was 1.84.

And the “Mean Plasma Nicotinamide Level” value ([4]; Month 4, ~24 h after last treatment, ASA 20 mg/kg, AZT printed 1 mg/kg)?
The value was 4.7 ± 0.5 nmol/mL.

What about the “Mean Plasma Nicotinamide Level” value ([4]; Month 4, delayed Rx 2 weeks) of the same compound?
The value was 4.6 ± 0.3 nmol/mL.
